# Laboratory results as given in patent publication US10597398B2, “Suppression and regeneration promoting effect of low molecular weight compound on cancer and fibrosis” (NATIONAL UNIVERSITY CORPORATION TOTTORI UNIVERSITY, priority 2015, dated 2020).
# Test system: Wnt/β-catenin signaling
# Experiment: Inhibitory effect on Wnt/β-catenin signaling in liver cancer cells (HuH7-TCF4 luciferase)
# Type: cell-based, human
# Conditions: concentration equal to or lower than that of IC-2
# Experimental: A pTCF4-CMVpro-GL4.20 plasmid vector, which had been constructed by inserting 3 copies of TCF4 motifs (CCT TTG ATC) upstream of a CMV promoter into a multiple cloning site of pGL4.20 (Promega Corp., Fitchburg, Wis.), was linearized and stably transfected into the HuH-7 cells. The resulting stable cells (HuH7-TCF4 cells) and HuH-7 cells were likewise cultured.
# While each compound was added at concentrations where the growth of HuH-7 cells was reduced to about 50% or less, Wnt/β-catenin signaling activity was measured. The concentrations of the respective compounds were as described in FIG. 40. Control samples used were 0.1% DMSO, a solvent for each compound, and 0.5 μM 5-FU.
# First, 70 to 90% confluent HuH7-TCF4 cells were harvested and seeded (n=3) at 5.0×10^4 cells/well of a 24-well plate (TPP). After 24 h, each compound was added to the cells and the mixture was cultured at 37° C.
# At 48 h after the compound treatment, the culture medium was discarded, and 100 μL of room temperature 5×Passive Lysis Buffer (PLB) (Promega Corp., Fitchburg, Wis.), which had been diluted 5-fold with MilliQ water, was added to each well. Next, the plate was shaken at room temperature for 15 min and was then frozen at −30° C. overnight. A Luciferase Assay Substrate was diluted with 10 mL of room temperature Luciferase Assay Buffer II to prepare Luciferase Assay Reagent II (LARII) (Promega). The frozen PLB lysate samples were thawed and permeabilized for 15 min. Then, 10 μL aliquots were added to wells of a 96-well white plate (Corning Inc., Corning, N.Y.). While 50 μL aliquots of LARII were each added to each well, luminescence was quantified by using a 1420 multi-label counter ARVO MX (PerkinElmer Singapore Pte Ltd., Singapore) to determine firefly luciferase activity. Note that a significant difference was evaluated by using (two-tailed) Student's t-test. The “*” in figures indicates a significant difference of p<0.05 between 0.1% DMSO and each compound; and the “**” indicates a significant difference of p<0.01 (the same applies to all the figures in Examples).
row,Structure (SMILES),inhibitory effect on Wnt/β-catenin signaling pathway in liver cancer cells compared with IC-2
1,O=C1C(Cc2ccccc2)N2C(=O)CCN(C(=O)NCc3ccc(O)cc3)C2CN1Cc1cccc2ccccc12 (stereo not shown) [IC-2-OH],more potent inhibitory effect
2,COCOc1ccc(CNC(=O)N2CCC(=O)N3C(Cc4ccccc4)C(=O)N(Cc4cccc5ccccc45)CC23)cc1 (stereo not shown) [IC-2-OMOM],more potent inhibitory effect
3,COc1ccc(CNC(=O)N2CCC(=O)N3C(Cc4ccccc4)C(=O)N(Cc4cccc5ccccc45)CC23)cc1 (stereo not shown) [IC-2-OMe],more potent inhibitory effect

# Test system: LX-2 cells
# Experiment: Anti-fibrosis effect, summary statements on Example 3 (marker not specified)
# Type: cell-based, human
# Conditions: concentration equal to or higher than that of IC-2
# Source text: α-Smooth muscle actin (α-SMA), a fibrosis marker, was used as an indicator, and RNA was collected from LX-2 cells treated with each low-molecular-weight compound. Next, an inhibitory effect on fibrosis was examined by real-time RT-PCR.
# In addition, instead of α-SMA, another fibrosis marker collagen, type I, alpha 1 (COL1A1) was used as an indicator, and substantially the same protocol was repeated. The concentrations of each compound used were as described in FIG. 34. Each control sample used was 0.1% DMSO, a solvent for each compound. Here, COL1A1 primers used were 5′-CCT CCA GGG CTC CAA CGA G-3′ and 5′-TCAATCACTGTCTTGCCCCA-3′. The annealing was performed at 58° C. for 5 sec. The measurement results were obtained by dividing the calculated value for the COL1A1 gene by the calculated value for the GAPDH gene.
row,Structure (SMILES),"anti-fibrosis effect compared with IC-2, equal or higher concentration"
1,O=C1C(Cc2ccccc2)N2C(=O)CCN(C(=O)NCc3ccc(O)cc3)C2CN1Cc1cccc2ccccc12 (stereo not shown) [IC-2-OH],more potent anti-fibrosis effect

# Test system: HuH-7 cells
# Experiment: Growth inhibitory effect on cancer cells (WST assay), Example 2.3
# Type: cell-based, human
# Conditions: HuH-7 cells, WST assay, concentrations 0-50 μM, control 0.1% DMSO
# Experimental: HuH-7 cells, a human liver cancer cell line, were cultured on 10-cm cell culture dishes (TPP Techno Plastic Products AG, Trasadingen, Switzerland) by using DMEM under conditions at 5% CO2, 37° C., and 100% humidity. When the cells were 70 to 90% confluent, 200 μL of 0.25% Trypsin/1 mM EDTA solution, which had been prepared by diluting the stock solution 10-fold with PBS (−), was added to detach the cells. Then, the cells were centrifuged at 1000 rpm for 3 min at room temperature. The cells recovered were subcultured at a 1:4 split ratio.
# First, 70 to 90% confluent HuH-7 cells were harvested and seeded (n=3) at 5×10^3 cells/well of a 96-well plate (TPP). After 24 h, each compound was added to the cells and the mixture was cultured at 37° C. The concentrations of each compound were 0, 10, 20, 30, 40, and 50 μM. For IC-2-506-1, however, the concentrations used were 0, 10, 20, 25, 30, 40, and 50 μM. Each control sample (0 μM) used was 0.1% DMSO, a solvent for each compound.
# Next, 0, 24, 48, and 96 h after the compound treatment, 100 μIL of DMEM-diluted 10% Cell Counting Kit-8 (DOJINDO LABORATORIES, Kumamoto) was added. The mixture was incubated at 37° C. for 60 min and its absorbance (at a measurement wavelength of 450 nm/control wavelength of 600 nm) was measured by using a Sunrise Rainbow RC (Tecan Group Ltd., Mannedorf, Switzerland). Absorbance for the cells alone was calculated by subtracting, from the reading obtained, absorbance for 10% Cell Counting Kit-8 alone.
# The “*” in figures indicates a significant difference of p<0.05 between 0.1% DMSO and each compound; and the “**” indicates a significant difference of p<0.01 (the same applies to all the figures in Examples).
row,IC50 [µM],Structure (SMILES)
1,33.5,O=C1C(Cc2ccccc2)N2C(=O)CCN(C(=O)NCc3ccc(O)cc3)C2CN1Cc1cccc2ccccc12 (stereo not shown) [IC-2-OH]
2,20.3,COCOc1ccc(CNC(=O)N2CCC(=O)N3C(Cc4ccccc4)C(=O)N(Cc4cccc5ccccc45)CC23)cc1 (stereo not shown) [IC-2-OMOM]
3,34.9,COc1ccc(CNC(=O)N2CCC(=O)N3C(Cc4ccccc4)C(=O)N(Cc4cccc5ccccc45)CC23)cc1 (stereo not shown) [IC-2-OMe]

# Same assay, conditions: comparison with IC-2
row,IC50 compared with IC-2,Structure (SMILES)
1,lower IC50 than IC-2,COCOc1ccc(CNC(=O)N2CCC(=O)N3C(Cc4ccccc4)C(=O)N(Cc4cccc5ccccc45)CC23)cc1 (stereo not shown) [IC-2-OMOM]

# Test system: Wnt/β-catenin signaling
# Experiment: Inhibitory effect on Wnt/β-catenin signaling in mesenchymal stem cells (E7-TCF4 luciferase)
# Type: cell-based, human
# Conditions: E7-TCF4 cells, day 8 after compound addition, compared with control 0.1% DMSO
# Experimental: A pTCF4-CMVpro-GL4.20 plasmid vector, having 3 copies of TCF4 motifs (CCT TTG ATC) upstream of aCMV promoter in a multiple cloning site of pGL4.20 (Promega Corp., Fitchburg, Wis.), was linearized and stably transfected into UE7T-13 cells to prepare E7-TCF4 cells. Also, a pCMVpro-GL4.20 plasmid vector, having a CMV promoter in a multiple cloning site of pGL4.20, was linearized and stably transfected into UE7T-13 cells. The resulting stable cells (E7-CMV cells) were cultured, like UE7T-13 cells, in 10% FBS/DMEM containing 0.25 μg/mL puromycin.
# UE7T-13 cells were used to measure Wnt/β-catenin signaling activity. The concentrations of the respective compounds were as described in FIG. 42. Each control sample used was 0.1% DMSO, a solvent for each compound.
# First, 70 to 90% confluent E7-TCF4 cells and E7-CMV cells were harvested and seeded (n=3) at 1.6758×10^4 cells/well of a 24-well plate (9.0×10^3 cells/cm^2). One day after that, each compound was added to the cells and the mixture was cultured at 37° C. Day 4 after the compound addition, the culture medium was changed.
# At day 1, 4, or 8 after the compound treatment, the culture medium was discarded, and 100 μL of room temperature 5×Passive Lysis Buffer (PLB), which had been diluted 5-fold with MilliQ water, was added to each well. Next, the plate was shaken at room temperature for 15 min and was then frozen at −30° C. overnight. A Luciferase Assay Substrate was diluted with 10 mL of room temperature Luciferase Assay Buffer II to prepare Luciferase Assay Reagent II (LARII). The frozen PLB lysate samples were thawed and permeabilized for 15 min. Then, 10 μL aliquots were added to wells of a 96-well white plate. While 50 μL aliquots of LARII were each added to each well, luminescence was quantified by using a 1420 multi-label counter ARVO MX to determine firefly luciferase activity.
row,Structure (SMILES),inhibitory effect on Wnt/β-catenin signaling in mesenchymal stem cells
1,COc1ccc(CN2CC3N(C(=O)NCc4ccccc4)CCC(=O)N3C(Cc3ccccc3)C2=O)cc1 (stereo not shown) [IC-2-Ar-OMe],"all the compounds except for IC-2-Ar-OMe, 9b, and 7c-NT exhibited a significant inhibitory effect"

# Same assay, conditions: concentration equal to or lower than that of IC-2
row,Structure (SMILES),inhibitory effect on Wnt/β-catenin signaling pathway in mesenchymal stem cells compared with IC-2
1,O=C1C(Cc2ccccc2)N2C(=O)CCN(C(=O)NCc3ccccc3)C2CN1Cc1ccc([N+](=O)[O-])cc1 (stereo not shown) [IC-2-Ar—NO2],more potent inhibitory effect
